# Experiments:
# [1] = test system: Chili G15A (Tr12) (RNA, aptamer) GGCUAGCUGGAGGGACGCCAGUUCGCUGGUGGUUGGGUGCGGUCGGCUAGCC; assay: absorbance and fluorescence; settings: K+ 125 mM, Mg2+ 5 mM; 40 mM HEPES pH 7.5; 5 µM RNA and ligand
# [2] = test system: Parent Chili (Tr1) (RNA, aptamer) GGCUAGCUGGAGGGGCGCCAGUUCGCUGGUGGUUGGGUGCGGUCGGCUAGCC; assay: X-ray crystallography; settings: K+ 50 mM, Mg2+ 5 mM, 10 mM HEPES pH 8.0, then MES pH 5.4-5.8, spermine, PEG 400
# [3] = test system: c7G15 Chili with r4CI at 34 (R3 ligated to R4) (RNA, aptamer, 7-deazaguanine (c7G) at 15; 4-cyanoindole ribonucleoside (r4CI) replaces U34; 3'-phosphate on printed 3' fragment) GGCUAGCUGGAGGGGCGCCAGUUCGCUGGUGGUUGGGUGCGGUCGGCUAGCC; assay: FRET from r4CI to ligand; settings: K+ 125 mM, Mg2+ 5 mM; 40 mM HEPES pH 7.5
# [4] = test system: c7G15 Chili with r4CI at 46 (R3 ligated to R5) (RNA, aptamer, 7-deazaguanine (c7G) at 15; 4-cyanoindole ribonucleoside (r4CI) replaces G46; 3'-phosphate on printed 3' fragment) GGCUAGCUGGAGGGGCGCCAGUUCGCUGGUGGUUGGGUGCGGUCGGCUAGCC; assay: FRET from r4CI to ligand; settings: K+ 125 mM, Mg2+ 5 mM; 40 mM HEPES pH 7.5
# [5] = test system: Chili C40U (Tr13) (RNA, aptamer) GGCUAGCUGGAGGGGCGCCAGUUCGCUGGUGGUUGGGUGUGGUCGGCUAGCC; assay: absorbance and fluorescence; settings: K+ 125 mM, Mg2+ 5 mM; 40 mM HEPES pH 7.5; 5 µM RNA and ligand; 30% reduced fluorescence
# [6] = test system: Chili G15A/C40U (Tr14) (RNA, aptamer) GGCUAGCUGGAGGGACGCCAGUUCGCUGGUGGUUGGGUGUGGUCGGCUAGCC; assay: absorbance and fluorescence; settings: K+ 125 mM, Mg2+ 5 mM; 40 mM HEPES pH 7.5; 5 µM RNA and ligand; binding site only partially restored
# [7] = test system: c7G15-modified Chili (R3 ligated to R2) (RNA, aptamer, 7-deazaguanine (c7G) at 15; 3'-phosphate on printed 3' fragment) GGCUAGCUGGAGGGGCGCCAGUUCGCUGGUGGUUGGGUGCGGUCGGCUAGCC; assay: absorbance and fluorescence; settings: K+ 125 mM, Mg2+ 5 mM; 40 mM HEPES pH 7.5; 10 µM RNA and ligand (absorbance)
# [8] = test system: Parent Chili (Tr1) (RNA, aptamer) GGCUAGCUGGAGGGGCGCCAGUUCGCUGGUGGUUGGGUGCGGUCGGCUAGCC; assay: fluorescence activation; settings: 40 mM HEPES pH 7.5
# [9] = test system: Chili P1-2 (Tr5) (RNA, aptamer) GGAGCUGGAGGGGCGCCAGUUCGCUGGUGGUUGGGUGCGGUCGGCUCC; assay: fluorescence activation; settings: K+ 125 mM, Mg2+ 5 mM; 40 mM HEPES pH 7.5; 1 µM RNA and ligand; >80% of parent
# [10] = test system: Chili P1A (Tr3) (RNA, aptamer) GGCUAGCUGGAGGGGCGCCAGUUCGCUGGUGGUUGGGUGCGGUCAGCUAGCC; assay: fluorescence activation; settings: K+ 125 mM, Mg2+ 5 mM; 40 mM HEPES pH 7.5; 1 µM RNA and ligand; slower maturation than parent
# [11] = test system: circularly permuted Chili aptamer (Tr10) (RNA, aptamer) GGGUGCGGUCAGUCCGGAAGGACUGGAGGGGCGCCAGUUCGCUGGUGGUU; assay: fluorescence activation; settings: K+ 125 mM, Mg2+ 5 mM; 40 mM HEPES pH 7.5; 75% of P1A fluorescence enhancement
# [12] = test system: Chili P1-3 (Tr6) (RNA, aptamer) GGACUGGAGGGGCGCCAGUUCGCUGGUGGUUGGGUGCGGUCGGUCC; assay: fluorescence activation; settings: K+ 125 mM, Mg2+ 5 mM; 40 mM HEPES pH 7.5; 1 µM RNA and ligand; >80% of parent
# [13] = test system: Chili P1C (Tr2) (RNA, aptamer) GGCUAGCCGGAGGGGCGCCAGUUCGCUGGUGGUUGGGUGCGGUCGGCUAGCC; assay: fluorescence activation; settings: K+ 125 mM, Mg2+ 5 mM; 40 mM HEPES pH 7.5; 1 µM RNA and ligand; slower maturation than parent
# [14] = test system: Chili P1-1 (Tr4) (RNA, aptamer) GGCAGCUGGAGGGGCGCCAGUUCGCUGGUGGUUGGGUGCGGUCGGCUGCC; assay: fluorescence activation; settings: K+ 125 mM, Mg2+ 5 mM; 40 mM HEPES pH 7.5; 1 µM RNA and ligand; >80% of parent
Structure (SMILES),binding [1],binding ([2]; 2.25 Å),binding [3],binding [4],binding [5],binding [6],binding [7],"binding ([8]; Na+ (replaces K+, 125 mM), 25% residual intensity against K+)","binding ([8]; Tl+ (replaces K+, 125 mM), intensity preserved against K+)",binding ([2]; 2.95 Å),binding [9],binding [10],binding [11],binding [12],binding [13],binding [14]
COc1cc(/C=C2N=C(/C=N/O)N(c3ccc([N+](C)(C)C)cc3)C\2=O)cc(OC)c1O,no,yes,no,no,yes,yes,no,yes,yes,–,–,–,–,–,–,–
COc1cc(/C=C2\N=C(C)N(c3ccc([N+](C)(C)C)cc3)C2=O)cc(OC)c1O,–,–,–,–,–,–,–,–,–,yes,yes,yes,yes,yes,yes,yes

# — article PMC8192780 (2021)
